According to a melting point compilation (Tetko et al.; mined from patent text by program, amines drawn as free bases though some values may be those of a salt):

| SMILES | melting point |
| --- | --- |
| CN(Cc1ccccc1)Cc1c(-c2ccc([N+](=O)[O-])cc2)sc2c1c(=O)c(C(=O)c1ccccc1)cn2Cc1c(F)cccc1F | 197 to 199 °C |
| Cc1cc(C#N)cnc1Oc1c(Cl)cc(N)cc1Cl | 212 °C |
| O=C(O)CCCCCCCc1cncc2ccccc12 | 99 to 100 °C |
| NC[C@H]1COc2ccc(F)c(-c3ccc(Cl)cc3Cl)c2O1 | 65 °C |
| FC(F)(F)Oc1ccc(Cn2cnc3c(Cl)ncnc32)cc1 | 115 to 116 °C |
| [N-]=[N+]=NCCc1ccc(C(=O)O)cc1 | 130 to 131 °C |
| CSc1cc(-n2ncc(-c3ccc(S(C)(=O)=O)cc3)c(-c3ccc(F)cc3)c2=O)ccc1F | 105 to 107 °C |
| O=C(C=C(c1ccccc1)c1ccccc1)Nc1ccc(C(=O)O)cc1 | 222 to 224 °C |
| CCOC(=O)Cn1c(=O)c2cc(Cc3ncc[nH]3)ccc2n(Cc2ccc(Cl)c(Cl)c2)c1=O | 201 to 202 °C |
| CCSc1cc(C)nc(SCC)c1NC(=O)CCCCCCSc1nc2c(C)c(Cl)cc(C(C)C)c2o1 | 117 to 120 °C |
| CCN(CC)c1cccc2c1OC1(CC1)C2=O | 39.3 °C |
| CC(C)(C)[C@H]1N(c2ccc(C#N)c3ccccc23)C(=O)[C@@H]2C[C@@H](O)CN21 | 155 to 157 °C |
| COc1c(C)c(C)c(OC)c(C(O)CN)c1C (centres undefined) | 110 to 112 °C |
| CC1(C(O)C(N)=O)CC=CCC1 (centres undefined) | 102 to 110 °C |
| Cc1nnn(CC(C)n2nnc3cc4c(=O)n(C5CC5)nnc4cc3c2=O)n1 (centres undefined) | 157 to 160 °C |
| COc1cc(C(=O)O)cc(OC)c1Cc1cnc(N)nc1N | 264 to 267 °C |
| CCCNC(C)=C1C(=O)OC(=O)C(C(C)=O)=C1O | 145 to 148 °C |
| O=C(O)CCCCCC(c1cc(F)ccc1F)S(=O)(=O)c1ccc(Cl)cc1 (centres undefined) | 72 to 76 °C |
| CCCn1c(=Nc2ccc(C(=O)OCC)cc2)sc2ncccc2c1=O | 115 to 117 °C |
| CC(C)(C)[C@@H](CO)NC(=O)[C@@H](CC(=O)O)n1ccc(-c2ccc(-c3ccc(C#N)cc3)cc2)c1 | 110 to 112 °C |
| Clc1ccc(Nc2nc3ccccc3c3[nH]c(C4CCCC4)nc23)cc1 | 189 to 190 °C |
| COCc1ncc(Nc2ccc(Cl)cc2)nc1-n1nc(C)cc1C | 147 to 151 °C |
| CC12CC3OC3CC1CCC1C2CCC2(C)C(O)C(N3CCC4(CC3)OCCO4)CC12 (centres undefined) | 186 to 188 °C |
| CCc1nc2c(N)nc3ccccc3c2n1CCOCCNC(=O)NC1CCCCC1 | 198 to 200 °C |
| CCCCCCCCCC(=O)Nc1ccc(S(=O)(=O)Nc2nnc(CC(=O)O)s2)cc1 | 190 to 191 °C |

| SMILES | melting point |
| --- | --- |
| CCN(CC)CCN(C)C1(c2ccccc2Cl)C(=O)Nc2ccc(Cl)cc21 (centres undefined) | 140 °C |
| Nc1ncc(-c2ccc(=O)[nH]n2)c(-c2cccnc2)n1 | 256 °C |
| CC(=O)N1c2ccc(-c3nnn[nH]3)cc2C(Nc2ccc(Cl)cc2)CC1C (centres undefined) | 190 to 191 °C |
| CCOC(=O)Nc1cnn(C)c1S(=O)(=O)NC(=S)NC(C)C | 141 to 144 °C |
| CCc1ccc(/C=C/c2cc(OC)c(OC)c(OC)c2)cc1 | 98 to 100 °C |
| CN1CCC(c2cccc(Cl)c2)(C(C)(C)O)CC1 | 149 to 150 °C |
| CCOc1ccc2c(c1)CC(=O)c1cc(C(C)C(N)=O)ccc1S2 (centres undefined) | 128 to 130 °C |
| COC(=O)CC(=O)c1ccc(C#N)cc1 | 93 to 98 °C |
| CCCCOC(=N)c1sc2ccccc2c1O | 185 °C |
| CC(=O)OCc1cccc(C(C)C)c1NC(=O)CC1c2ccccc2Oc2ccccc21 | 155 to 156 °C |
| O=C1NC(=O)C2(C=CC=C3OCC=C32)N1 (centres undefined) | 245 to 248 °C |
| c1cc(C2CC(c3ccncn3)CC(c3ccncn3)C2)ncn1 (centres undefined) | 126 to 128 °C |
| COc1ccc(CC(=O)Nc2cccc(/C=C/c3nc(C4CCC4)cs3)c2)c(C(=O)O)c1 | 190 to 191 °C |
| Cn1c(=N)c(C(=O)NCCO)c(O)c2cc(Cl)ccc21 | 234 to 237 °C |
| CC1CCc2c(c3c(O)cc(C(C)CCCc4ccc(F)cc4)cc3oc2=O)C1 (centres undefined) | 127 to 129 °C |
| CCOC(=O)c1cn(CCCl)c2nc(N3CCN(C(C)=O)CC3)ncc2c1=O | 205 to 206 °C |
| CC(C)(C)c1cc(OC(=O)N2CC(O)C2)cc(C(C)(C)C)c1 | 166 to 170 °C |
| CN(C)CC1CNc2cc(O)ccc2C1 (centres undefined) | 151 to 152 °C |
| CN(CCOc1ccc(OC(F)(F)F)cc1)CC1(C)Cn2cc([N+](=O)[O-])nc2O1 (centres undefined) | 86.4 to 89.2 °C |
| O=C(NCCCCCCCCCCCNC(=O)c1ccc(OC(F)(F)F)cc1)c1ccc(OC(F)(F)F)cc1 | 142 °C |
| c1ccc2c(c1)Cn1cccc1C1(CCNCC1)O2 | 168 to 170 °C |
| CC1CCC(Nc2ccccc2)c2nccc(=O)n21 (centres undefined) | 160 to 162 °C |
| CC(C)(C)c1cc(OCc2cccc(C(=O)O)c2)cc(C(C)(C)C)c1 | 167 to 169 °C |
| CC1=CC(=C(CC(C)CC(C)(C)C)c2cc(C)cc(C)c2OCc2ccccc2)C(O)C(C)=C1 (centres undefined) | 125 to 126 °C |
| C=CCOc1cccc(-c2n[nH]c(-c3ccccc3C)n2)c1 | 72 to 75 °C |

Now from value to molecule:

| melting point | SMILES |
| --- | --- |
| 154 to 155 °C | COc1ccc(Cc2sccc2OC2OC(CO)C(O)C(O)C2O)cc1 (centres undefined) |
| 163 to 165 °C | CON1C(C)(C)CC(CCCCNc2nc(N)nc(NCCCCC3CC(C)(C)N(OC)C(C)(C)C3)n2)CC1(C)C |
| 120 to 121 °C | C/C(=C\CC1OC(=O)NC1=O)c1cccc(OCc2nc(-c3ccc(OCC(F)(F)F)cc3)oc2C)c1 (centres undefined) |
| 246 to 249 °C | Cc1cc(=O)n(Cc2ccccc2)c2cc(OCc3nnn[nH]3)cc(OCc3nnn[nH]3)c12 |
| 76 to 79 °C | C=CCC1(C(=O)NCCC)c2ccccc2CCc2ccccc21 |
| 294 to 296 °C | CCOCCn1cc2c(C3C(=O)Nc4ccc(Cl)cc43)nc(NCc3cccnc3)nc2n1 (centres undefined) |
| 108 to 112 °C | O=C1CCCCc2sccc2N1CCCCN1CCN(c2ncccn2)CC1 |
| 173 to 174 °C | Cc1nn(Cc2ccc(Cl)cc2)c(C)c1CC(=O)O |
| 116 to 117 °C | COc1ccc(SCc2ccccc2)c(Cl)c1Cl |
| 197 to 199 °C | COc1ccc2nc(-c3ccc(OC)c(F)c3)c(Cl)c(Br)c2c1 |
| 227 to 229 °C | O=C(Nc1cc(F)ccc1O)c1cc(Cl)c(O)c(Cl)c1 |
| 174 to 176 °C | CNC(=O)OCc1c(COC(=O)NC)c2n(c1C)Cc1ccccc1C2 |
| 106 to 108 °C | CCc1nn2ccccc2c1NC(=O)COC |
| 172 to 175 °C | Cc1c(CO)nc2c(OCc3ccccc3)cccn12 |
| 84 to 85 °C | O=C(c1ccccc1)N1CCC2CC(O)(c3ccc(F)cc3)CCC2C1 (centres undefined) |
| > 250 °C | O=C1CCCC2=C1C(c1cccnc1)C1=C(CCS1)N2 (centres undefined) |
| 223 to 225 °C | O=C(Cc1ccc(Cl)cc1C(=O)O)Nc1cccc(/C=C/c2nc(C3CCC3)cs2)c1 |
| 200 °C | O=C(N[C@H]1CC[C@H](CCN2CCN(c3nccc4c3OCC4)CC2)CC1)c1cnc(N2CCOCC2)cn1 |
| 232 to 235 °C | CCOC(=O)c1cn(-c2cc(OC)c(F)cc2F)c2c(C)c(N)c(F)cc2c1=O |
| 255 °C | Cc1cccc(-c2nc3c(o2)C(=O)c2ccccc2C3=O)c1 |
| 148 °C | COc1ccc(CNc2ncnc3c2ncn3C2OC(CO)C(O)C2O)cc1 (centres undefined) |
| 170 to 172 °C | CSc1nccc(-c2ssc(=S)c2C)n1 |
| 147 to 148 °C | c1cc(N2CCCC2)ccc1CC12CC3CC(CC(C3)C1)C2 |
| 143 to 147 °C | CC(C)(CN1CCCCC1)Nc1ccnc2cc(Cl)ccc12 |
| 105 to 107 °C | CC(=O)n1ncc2c(OCC3CO3)cc(C)cc21 (centres undefined) |

| melting point | SMILES |
| --- | --- |
| 128 °C | C[C@](N)(CO)CCc1ccc2oc(-c3ccccc3)nc2c1 |
| 150 °C | CCOC(=O)CCP(Br)(c1ccccc1)(c1ccccc1)c1ccccc1 |
| 82 to 84 °C | CC(=O)c1ccc2c(c1)Sc1ccccc1C=C2 |
| 174 to 176 °C | COc1cc(OC)c(-c2cccs2)cc1/C=C/C(=O)c1ccc(S(=O)(=O)NN2CCCCC2)cc1 |
| 83 to 84 °C | CCC(=CC(CSc1nnnn1C)=NO)C(C)[N+](=O)[O-] (centres undefined) |
| 154 °C | COc1cc2c(cc1Nc1ncc(Cl)c(Nc3ccccc3S(=O)(=O)N(C)C)n1)N(CC(=O)N(C)C)C(=O)CN(CC(=O)N(C)C)C2 |
| 261 °C | Cc1c(C(=O)O)cnn1-c1nc(-c2cc(C(F)(F)F)cc(C(F)(F)F)c2)cs1 |
| 70 to 72 °C | CCc1nn(CC#N)c(CC)c1Oc1cc(Cl)cc(Cl)c1 |
| 125 °C | COc1ccc(S(=O)(=O)c2c(C(C)C)n(C)c3ccccc23)cc1 |
| 153 to 154 °C | CC(=O)Nc1cc(C)c([N+](=O)[O-])cn1 |
| 112 to 114 °C | Cc1ccc(-n2cccc2-c2ccc(S(C)(=O)=O)cc2)cc1 |
| 93 to 97 °C | COc1ccc(-c2cc(C)sc2-c2ccc(OC)cc2)cc1 |
| 182 to 184 °C | CC(=O)C1CCC2C3CCC4CC(O)(c5ccccc5)CCC4(C)C3CCC12C (centres undefined) |
| 158 to 160 °C | CN1CCc2c(c3ccccc3n2CCc2nc(-c3ccncc3)cs2)C1 |
| 124 to 125 °C | COC(=O)c1oc2c(sc3ccccc32)c1O |
| 186 to 187 °C | CN(CC(=O)N1CCN(Cc2ccc3c(c2)OCO3)CC1)c1ccc(Oc2ccc(NS(=O)(=O)c3ccc(Cl)c(Cl)c3)cn2)c(F)c1 |
| 109 to 113 °C | O=C1CCC(=O)C1C(=O)c1ccc(Cl)cc1Cl |
| 167 to 168 °C | OCCNc1nc(Cl)nc2c1ncn2C1CC(O)C(CO)O1 (centres undefined) |
| 181 to 183 °C | O=C(O)COc1ccc(CC2SC(=O)NC2=O)cc1 (centres undefined) |
| 225 °C | CCn1c(C)c(C2(c3c(-c4ccccc4)[nH]c4ccccc34)OC(=O)C(Cl)=C2Cl)c2ccccc21 (centres undefined) |
| 119 to 120 °C | O=C(O)CC(=O)N1CCSCC1 |
| 138 to 141 °C | COc1c(C)c(C)c(OCc2ccccc2)c(C)c1CN(C)CCOc1cc(C)ccc1C(C)C |
| 164 to 168 °C | CCOCCOc1ccc(-c2ccc3c(c2)C=C(C(=O)Nc2ccc(CN(C)C4CCOCC4)cc2)CCS3(=O)=O)cc1OCC |
| 142 to 144 °C | NC(=O)CN1C[C@@H]2CCCC[C@@H]2C1=O (relative stereo) |
